Test system: nOSTZ rat
Experiment: Antidiabetic effect of the metformin and CRE16336 combination on the nOSTZ rat (glycaemia, insulinaemia, lacticaemia after 4 days of oral treatment)
Assay type: in vivo
Settings: for Glucose / Insulin / Lactate: 4 days of oral treatment, blood from the tail 2 h after last administration, metformin 25 mg/kg and/or CRE16336 12.5 mg/kg; for Effect on the hyperglycaemia in the nOSTZ rats (in words): 4 days oral, metformin 25 mg/kg, CRE16336 12.5 mg/kg, alone or combined
Protocol: The antidiabetic effect of the metformin and CRE16336 combination was studied on the nOSTZ rat, an experimental model of non-insulin-dependent diabetes. This model is produced by intravenous injection of Streptozotocin (STZ) 100 mg/kg, on the day of birth. 38 male nOSTZ rats were used after selection based on the hyperglycaemia value after fasting for 2 h in order to homogenize the groups. […] a group treated with metformin at 25 mg/kg a group treated with CRE16336 at 12.5 mg/kg a group treated with metformin 25 mg/kg and CRE16336 12.5 mg/kg 5 male Wistar rats were incorporated into this study in order to evaluate the degree of hyperglycaemia in the diabetic animals. The products were administered orally in the morning between 8 am and 9 am, for 4 days.

| SMILES | Glucose [mg/dL] | Insulin [μU/ml] | Lactate [mg/dL] | Effect on the hyperglycaemia in the nOSTZ rats (in words) |
| --- | --- | --- | --- | --- |
| N#Cc1ccc(OCCC2SC(=O)NC2=O)cc1 (centres unmarked) [CRE16336, 5-[2-(4-cyanophenoxy)ethyl]thiazolidine-2,4-dione] | 156 ± 6 | 45.2 ± 5.5 | 13.2 ± 0.7 | does not modify the hyperglycaemia |
| CN(C)C(=N)NC(=N)N [Metformin, 1,1-dimethylbiguanide] | 160 ± 5 | 34.1 ± 3.7 | 15.4 ± 1.4 | does not modify the hyperglycaemia |

Source: patent US20040014797A1, “Pharmaceutical composition comprising metformin and a 5-phenoxyalkyl-2,4-thiazolidinedione-type derivative” (priority 2000, published 2004)
